Where two headings read alike, the source gives them in different places.
Assays:
[1] = Compound toxicity, ATPLite total ATP levels; type: cell-based; conditions: human, HepAD38 cells, three days after compound addition, concentration reducing total ATP levels by 50% relative to no drug controls
Method: Methods: HepAD38 cells are maintained as previously reported (Ladner et al, Antimicrob. Agents Chemother. 1997, […], 1715). Briefly, cells are passaged upon attaining confluency in DMEM/F12 media in the presence of 10% FBS, Penn/Strep, 250 μg/mL G418, and 1 ug/ml tetracycline. Novel compounds are screened by first washing cells three times with PBS to remove tetracycline, and plating in 96 well plates at 35,000 cells/well. Compounds dissolved in DMSO are then diluted 1:200 into wells containing cells. Five days after compound addition, material is harvested for analysis. For an extended 8 day analysis, cells are plated and treated as described above, but media and compound are refreshed on d2 and d5 post initial treatment.
Compound toxicity is evaluated by seeding cells at 15,000 cells/well and treating with compound as described above.

HBV = experiment: HepAD38 antiviral assay: reduction of viral product accumulation (virion DNA by qPCR, HBsAg or HBeAg by ELISA); type: cell-based, hepatitis B virus; conditions: HepAD38 cells, five days after compound addition, concentration reducing viral product accumulation by 50% relative to no drug controls, read-out: HepAD38 EC50
Summary of the method: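 HepAD38 cells were washed free of tetracycline, plated at 35,000 cells/well and given compounds diluted 1:200 from DMSO. After 5 days, or 8 days with media and compound refreshed on d2 and d5, virion DNA was measured by qPCR and HBsAg or HBeAg by ELISA. EC50 is the concentration giving 50% reduction of viral product versus no-drug controls.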

[2] = Hepatitis B virus, HePAD38, 120 h

Row | SMILES | CC50 at 3 days ([1]; class symbols) [nM] | EC50 (HBV; [2]) [nM] | CC50 at 3 days ([1]; numeric bounds) [nM] | EC50 (HBV) [nM]
1 | O=C(Nc1cc(F)c(F)c(F)c1)c1ccc(Cl)c(S(=O)(=O)[C@H]2CC[C@H](O)CC2)c1 [Example 3] | > 25000 | 100 to 400 |  | 
2 | O=C(Nc1cc(F)c(F)c(F)c1)c1ccc(Cl)c(S(=O)(=O)[C@H]2CC[C@@H](O)CC2)c1 [Example 4] | > 25000 | 100 to 400 |  | 
3 | O=C(Nc1cc(F)c(F)c(F)c1)c1ccc(Cl)c(S(=O)(=O)CCCO)c1 [Example 7] | > 25000 | > 400 |  | 
4 | O=C(Nc1cc(F)c(F)c(F)c1)c1ccc(Cl)c(S(=O)(=O)[C@]2(F)CC[C@H](O)CC2)c1 [Example 8] | 10000 to 25000 | 100 to 400 |  | 
5 | O=C(Nc1cc(F)c(F)c(F)c1)c1ccc(Cl)c(S(=O)(=O)[C@]2(F)CC[C@@H](O)CC2)c1 [Example 9] | 10000 to 25000 | 100 to 400 |  | 
6 | C[C@]1(S(=O)(=O)c2cc(C(=O)Nc3cc(F)c(F)c(F)c3)ccc2Cl)CC[C@@H](O)CC1 [Example 16] | > 25000 | 100 to 400 |  | 
7 | C[C@]1(S(=O)(=O)c2cc(C(=O)Nc3cc(F)c(F)c(F)c3)ccc2Cl)CC[C@H](O)CC1 [Example 17] | > 25000 | 100 to 400 |  | 
8 | O=C(Nc1cc(F)c(F)c(F)c1)c1ccc(Cl)c(S(=O)(=O)Cc2cccnc2)c1 [Example 45] | > 25000 | 100 to 400 |  | 
9 | O=C(Nc1cc(F)c(F)c(F)c1)c1ccc(Cl)c(S(=O)(=O)Cc2ccncc2)c1 [Example 46] | > 25000 | 100 to 400 |  | 
10 | O=C(Nc1cc(F)c(F)c(F)c1)c1ccc(Cl)c(S(=O)(=O)Cc2ccccn2)c1 [Example 48] | > 25000 | > 400 |  | 
11 | O=C(Nc1cc(F)c(F)c(F)c1)c1ccc(Cl)c(S(=O)(=O)[C@H]2C3CCC2C[C@](O)(CO)C3)c1 [Example 60] | > 25000 | < 100 |  | 
12 | CC(c1ccncc1)S(=O)(=O)c1cc(C(=O)Nc2cc(F)c(F)c(F)c2)ccc1Cl (stereo not shown) [Example 80] | 10000 to 25000 | < 100 |  | 
13 | O=C(Nc1cc(F)c(F)c(F)c1)c1ccc(Cl)c(S(=O)(=O)C2CC[C@H](O)[C@@H](O)CC2)c1 [Example 84] | > 25000 | < 100 |  | 
14 | CC(=O)[C@]1(O)CC2CC[C@@H](C1)[C@H]2S(=O)(=O)c1cc(C(=O)Nc2cc(F)c(F)c(F)c2)ccc1Cl [Example 150] | 10000 to 25000 | < 100 |  | 
15 | CN(C)C[C@]1(O)CC2CC[C@@H](C1)[C@H]2S(=O)(=O)c1cc(C(=O)Nc2cc(F)c(F)c(F)c2)ccc1Cl [Example 154] | < 10000 | < 100 |  | 
16 | CC1=NO[C@@]2(C1)CC1CC[C@@H](C2)[C@H]1S(=O)(=O)c1cc(C(=O)Nc2cc(F)c(F)c(F)c2)ccc1Cl [Example 188] |  | < 100 | > 12500 | 
17 | O=C(Nc1cc(F)c(F)c(F)c1)c1ccc(Cl)c(S(=O)(=O)[C@H]2C3CC[C@H]2C[C@](O)(c2cc(-c4ccccc4)on2)C3)c1 [Example 220] | < 10000 | < 100 |  | 
18 | C[C@]1(O)C2CCC1C[C@@H](S(=O)(=O)c1cc(C(=O)Nc3cc(F)c(F)c(F)c3)ccc1Cl)C2 [Example 246] | 10000 to 25000 | 100 to 400 |  | 
19 | CC[C@]1(O)C2CCC1C[C@@H](S(=O)(=O)c1cc(C(=O)Nc3cc(F)c(F)c(F)c3)ccc1Cl)C2 [Example 252] |  | < 100 | > 6250 | 
20 | C[C@]1(O)C2CCC1C[C@H](S(=O)(=O)c1cc(C(=O)Nc3cc(F)c(F)c(F)c3)ccc1Cl)C2 [Example 253] | > 25000 |  |  | < 100
21 | O=C(Nc1cc(F)c(F)c(F)c1)c1ccc(Cl)c(S(=O)(=O)[C@H]2CC3CCC(C2)[C@]3(O)Cn2cccn2)c1 [Example 256] |  | < 100 | > 12500 | 
22 | [N-]=[N+]=NC[C@]1(O)C2CCC1C[C@@H](S(=O)(=O)c1cc(C(=O)Nc3cc(F)c(F)c(F)c3)ccc1Cl)C2 [Example 257] | > 25000 | < 100 |  | 
23 | [N-]=[N+]=NC[C@]1(O)C2CCC1C[C@H](S(=O)(=O)c1cc(C(=O)Nc3cc(F)c(F)c(F)c3)ccc1Cl)C2 [Example 258] |  | < 100 | > 12500 | 
24 | CS(=O)(=O)NC[C@]1(O)C2CCC1C[C@@H](S(=O)(=O)c1cc(C(=O)Nc3cc(F)c(F)c(F)c3)ccc1Cl)C2 [Example 259] |  | < 100 | > 12500 | 
25 | O=C1NC[C@]2(O1)C1CCC2C[C@@H](S(=O)(=O)c2cc(C(=O)Nc3cc(F)c(F)c(F)c3)ccc2Cl)C1 [Example 260] | > 25000 | < 100 |  | 

Row | SMILES | CC50 at 3 days ([1]; class symbols) [nM] | EC50 (HBV; [2]) [nM] | CC50 at 3 days ([1]; numeric bounds) [nM] | EC50 (HBV) [nM]
26 | C=C[C@]1(O)CC2CC[C@@H](C1)[C@H]2S(=O)(=O)c1cc(C(=O)Nc2cc(F)c(F)c(F)c2)ccc1Cl [Example 267] | > 25000 | < 100 |  | 
27 | [N-]=[N+]=NC[C@@]1(O)CC2CC[C@@H](C1)[C@H]2S(=O)(=O)c1cc(C(=O)Nc2cc(F)c(F)c(F)c2)ccc1Cl [Example 271] |  | < 100 | > 12500 | 
28 | NC(=O)OC[C@@H]1CC2CC[C@@H](C1)[C@H]2S(=O)(=O)c1cc(C(=O)Nc2cc(F)c(F)c(F)c2)ccc1Cl [Example 272] |  | < 100 | > 12500 | 
29 | CS(=O)(=O)NC[C@]1(O)C2CCC1C[C@H](S(=O)(=O)c1cc(C(=O)Nc3cc(F)c(F)c(F)c3)ccc1Cl)C2 [Example 273] |  | < 100 | > 12500 | 
30 | O=C1NC[C@]2(O1)C1CCC2C[C@H](S(=O)(=O)c2cc(C(=O)Nc3cc(F)c(F)c(F)c3)ccc2Cl)C1 [Example 274] | > 25000 | < 100 |  | 
31 | N#CC[C@]1(O)C2CCC1C[C@@H](S(=O)(=O)c1cc(C(=O)Nc3cc(F)c(F)c(F)c3)ccc1Cl)C2 [Example 275] | > 25000 | < 100 |  | 
32 | O=C(Nc1cc(F)c(F)c(F)c1)c1ccc(Cl)c(S(=O)(=O)[C@H]2CC3CCC(C2)[C@]3(O)Cc2nnn[nH]2)c1 [Example 276] | > 25000 | > 400 |  | 
33 | NC[C@@]1(O)CC2CC[C@@H](C1)[C@H]2S(=O)(=O)c1cc(C(=O)Nc2cc(F)c(F)c(F)c2)ccc1Cl [Example 277] | < 10000 | 100 to 400 |  | 
34 | CCS(=O)(=O)NC[C@@]1(O)CC2CC[C@@H](C1)[C@H]2S(=O)(=O)c1cc(C(=O)Nc2cc(F)c(F)c(F)c2)ccc1Cl [Example 278] | > 25000 | 100 to 400 |  | 
35 | O=C(Nc1cc(F)c(F)c(F)c1)c1ccc(Cl)c(S(=O)(=O)[C@H]2C3CC[C@H]2C[C@@](O)(CNS(=O)(=O)C2CC2)C3)c1 [Example 279] | > 25000 | 100 to 400 |  | 
36 | CC(=O)NC[C@@]1(O)CC2CC[C@@H](C1)[C@H]2S(=O)(=O)c1cc(C(=O)Nc2cc(F)c(F)c(F)c2)ccc1Cl [Example 280] | > 25000 | 100 to 400 |  | 
37 | O=C(Nc1cc(F)c(F)c(F)c1)c1ccc(Cl)c(S(=O)(=O)[C@H]2C3CC[C@H]2C[C@](O)(c2ncc[nH]2)C3)c1 [Example 281] | > 25000 | < 100 |  | 
38 | C[C@]1(O)CC2CC[C@@H](C1)[C@H]2S(=O)(=O)c1cc(C(=O)Nc2cc(F)c(F)c(F)c2)ccc1Cl [Example 282] | > 25000 | < 100 |  | 
39 | O=C(Nc1cc(F)c(F)c(F)c1)c1ccc(Cl)c(S(=O)(=O)[C@H]2C3CC[C@H]2C[C@@H](c2ncc[nH]2)C3)c1 [Example 283] | < 10000 | 100 to 400 |  | 
40 | N#C[C@H]1CC2CC[C@@H](C1)[C@H]2S(=O)(=O)c1cc(C(=O)Nc2cc(F)c(F)c(F)c2)ccc1Cl [Example 284] |  | < 100 | > 3120 | 
41 | O=C1NC[C@]2(CC3CC[C@@H](C2)[C@H]3S(=O)(=O)c2cc(C(=O)Nc3cc(F)c(F)c(F)c3)ccc2Cl)O1 [Example 285] | > 25000 | 100 to 400 |  | 
42 | [N-]=[N+]=NC[C@]1(O)CC2CC[C@@H](C1)[C@H]2S(=O)(=O)c1cc(C(=O)Nc2cc(F)c(F)c(F)c2)ccc1Cl [Example 286] | 10000 to 25000 | < 100 |  | 
43 | O=C(Nc1cc(F)c(F)c(F)c1)c1ccc(Cl)c(S(=O)(=O)[C@H]2CC3CCC(C2)[C@@H]3O)c1 [Example 360] |  |  |  | < 100
44 | O=C(Nc1cc(F)c(F)c(F)c1)c1ccc(Cl)c(S(=O)(=O)[C@H]2CC3CCC(C2)[C@]3(O)CC(O)CO)c1 (stereo partly shown) [Example 361] |  | < 100 |  | 
45 | Cn1ccnc1[C@]1(O)C2CCC1C[C@@H](S(=O)(=O)c1cc(C(=O)Nc3cc(F)c(F)c(F)c3)ccc1Cl)C2 [Example 362] |  | < 100 |  | 
46 | CC(C)(O)C(O)[C@]1(O)C2CCC1C[C@H](S(=O)(=O)c1cc(C(=O)Nc3cc(F)c(F)c(F)c3)ccc1Cl)C2 (stereo partly shown) [Example 363] |  | < 100 |  | 
47 | CC(C)(C)OC(=O)N[C@@H](Cc1ccccc1)C(=O)NC[C@]1(O)C2CCC1C[C@@H](S(=O)(=O)c1cc(C(=O)Nc3cc(F)c(F)c(F)c3)ccc1Cl)C2 [Example 364] |  | < 100 |  | 
48 | CC(C)(C)OC(=O)N1CCC[C@H]1C(=O)NC[C@]1(O)C2CCC1C[C@@H](S(=O)(=O)c1cc(C(=O)Nc3cc(F)c(F)c(F)c3)ccc1Cl)C2 [Example 365] |  | < 100 |  | 
49 | N[C@@H](Cc1ccccc1)C(=O)NC[C@]1(O)C2CCC1C[C@@H](S(=O)(=O)c1cc(C(=O)Nc3cc(F)c(F)c(F)c3)ccc1Cl)C2 [Example 366] |  | 100 to 400 |  | 

Reference: patent US10538532B2, “Hepatitis B antiviral agents” (ENANTA PHARMACEUTICALS, INC., priority 2016, dated 2020)
